Results published in paper PMC3082437 (Journal of biomolecular screening, 2010).
Where two headings read alike, the source gives them in different places. Where a SMILES comes first, the peptide text is derived from it. The star is where a group is joined. Cbz = O=C(OCc1ccccc1)*

System: K328M-Wee1-Luc fusion protein in transiently transfected HeLa cells
Experiment: K328M-Wee1-Luc degradation
Format: cell-based

CC(C)C[C@@H](C=O)NC(=O)[C@H](CC(C)C)NC(=O)[C@H](CC(C)C)NC(=O)OCc1ccccc1 [MG132, Z-Leu-Leu-Leu-CHO] (Cbz-Leu-Leu-Leu-aldehyde)
hill slope of dose-response curve: > 2.5
increase in luminescent levels (30 μM, vs DMSO): > 9 fold
EC50 (optimized 1536-well protocol, n=5): 4.69 µM
EC50 (read-out: EC50, different thawed vials from a single batch, n=4): 4.7 µM
EC50 (read-out: EC50, non-cryopreserved cells, non-cryopreserved cell suspensions): 5.33 µM
